Read-outs that look alike come from different tables or passages of the source. Marks after values point to notes of the source that are not given here.
How the values were obtained:
CYP2C9 = CYP2C9 (Homo sapiens, UniProt P11712); assay: Vivid CYP450 screening kit, CYP2C9 activity; conditions: positive control, 10 μM, in blank serum
Description: Vivid® CYP450 screening kits were used to evaluate the effects of CMs on the activities of CYP1A2, CYP2C9, and CYP3A4, individually [26, 27], and all the procedures were performed based on the standard protocols.

[1] = rats; for Change of AUC0–10 vs warfarin alone / Change of AUC0–t vs warfarin alone / Change of Cmax vs warfarin alone: CJ 5.0 g/kg 0.5 h before warfarin; for Effect of CJ on AUC0–t / Effect of CJ on Cmax: CJ given at 10 h after (±) warfarin; for Decrease of AUC0-t / Decrease of AUC0–10 / Decrease of Cmax: CJ ingestion at 0.5 h before (±) warfarin, vs warfarin alone; for AUC0–10 / AUC0–t / AUC48–96 / Cmax: mean ± S.E.
Description: In the pharmacokinetic interaction study, the rats were randomly divided into three groups (n = 7 in each group). The first group of rats was orally administered (±) warfarin (0.2 mg/kg) alone. The second and third groups of rats were administered CJ (5 g/kg) at 0.5 h prior to (±) warfarin and at 10 h after (±) warfarin dosing, respectively. The study was performed in a parallel design. Blood samples were drawn at 0.5, 1.0, 2.0, 6.0, 10, 24, 48, 72, and 96 h after (±) warfarin dosing and collected in a Vacutainer K2 EDTA tube (BD, New Jersey, USA). The blood samples were centrifuged to obtain plasma.
Briefly, 100 µL of plasma was mixed with 50 µL of 0.5N formic acid and then partitioned with 150 µL of ethyl acetate containing 10 µg/mL of caffeic acid as an internal standard.
The pharmacokinetic parameters were calculated by Phoenix WinNonlin® version 8.1 (Pharsight Corporation, St. Louis, MO, USA). The unpaired Student’s t-test and one-way ANOVA were used for statistical comparisons, taking p < 0.05 as significant.

[2] = Measurement of INR in rats (anticoagulation effect of warfarin); type: in vivo; conditions: for INR value at 24 h: mean ± S.E.
Description: In the pharmacodynamic study, the rats were randomly divided into four groups (n = 8 in each group). In the first experiment, two groups of rats were orally administered (±) warfarin (0.2 mg/kg) alone and with CJ (5 g/kg) given at 0.5 h prior to (±) warfarin dosing, and blood samples were drawn at 6, 10 and 24 h after (±) warfarin dosing. In the second experiment, two groups of rats were orally administered (±) warfarin (0.2 mg/kg) with and without CJ (5 g/kg), given at 10 h after (±) warfarin dosing, and blood samples were drawn at 10, 24, and 48 h after (±) warfarin dosing.
Ten µL of blood was collected and the INR was measured using CoaguChek® XS System (Roche Diagnostics GmbH, Mannheim, Germany). All procedures followed the manufacturer’s protocol.

[3] = oral (±) warfarin 0.2 mg/kg + CJ 5.0 g/kg 0.5 h before warfarin
[4] = oral (±) warfarin 0.2 mg/kg + CJ 5.0 g/kg 10 h after warfarin
[5] = oral (±) warfarin 0.2 mg/kg alone

CYP2C9, sequence (P11712 whole entry): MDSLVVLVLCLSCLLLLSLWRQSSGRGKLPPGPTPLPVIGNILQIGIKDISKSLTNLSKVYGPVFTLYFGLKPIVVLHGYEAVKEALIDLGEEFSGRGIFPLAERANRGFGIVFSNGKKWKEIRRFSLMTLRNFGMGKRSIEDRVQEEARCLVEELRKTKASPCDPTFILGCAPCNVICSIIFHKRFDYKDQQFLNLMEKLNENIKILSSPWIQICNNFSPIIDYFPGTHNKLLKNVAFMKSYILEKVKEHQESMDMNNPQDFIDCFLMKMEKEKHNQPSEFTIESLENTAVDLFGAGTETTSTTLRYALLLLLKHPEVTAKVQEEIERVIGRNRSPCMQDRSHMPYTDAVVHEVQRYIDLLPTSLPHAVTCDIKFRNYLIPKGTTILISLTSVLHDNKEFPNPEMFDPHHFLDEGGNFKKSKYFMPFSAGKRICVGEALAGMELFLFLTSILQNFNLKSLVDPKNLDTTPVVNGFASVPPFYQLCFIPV

| Structure (SMILES) | Change of AUC0–10 vs warfarin alone [1] | Change of AUC0–t vs warfarin alone [1] | Change of Cmax vs warfarin alone [1] | Effect of CJ on AUC0–t [1] | Effect of CJ on Cmax [1] | Decrease of AUC0-t [1] | Decrease of AUC0–10 [1] | Decrease of Cmax [1] | AUC0–10 [1, 3] | AUC0–t [1, 3] | AUC48–96 [1, 3] | Cmax [1, 3] | AUC0–10 [1, 4] | AUC0–t [1, 4] | Cmax [1, 4] | AUC0–10 [1, 5] | AUC0–t [1, 5] | AUC48–96 [1, 5] | Cmax [1, 5] | also measured |
| --- | --- | --- | --- | --- | --- | --- | --- | --- | --- | --- | --- | --- | --- | --- | --- | --- | --- | --- | --- | --- |
| Nc1ccc(S(=O)(=O)Nc2ccnn2-c2ccccc2)cc1 [SFZ, sulfaphenazole] | – | – | – | – | – | – | – | – | – | – | – | – | – | – | – | – | – | – | – | Decrease of CYP2C9 activity (CYP2C9): 19% |
| CC(=O)C[C@@H](c1ccccc1)c1c(O)c2ccccc2oc1=O [S-warfarin] | (−52%) | (−34%) | (−48%) | not affected | not affected | 34% | 52% | 48% | 1561.8 ± 217.3 ^b h⋅ng/mL | 6286.7 ± 456.3 ^b h⋅ng/mL | 1041.3 ± 296.5 ^a h⋅ng/mL | 216.3 ± 18.1 ^b ng/mL | 3846.6 ± 260.8 ^a h⋅ng/mL | 11,555.0 ± 613.6 ^a h⋅ng/mL | 542.0 ± 59.4 ^a ng/mL | 3267.7 ± 423.2 ^a h⋅ng/mL | 9459.1 ± 1659.6 ^a h⋅ng/mL | 1126.6 ± 434.5 ^a h⋅ng/mL | 418.2 ± 69.4 ^a ng/mL | AUC48–96 [1, 4]: 2547.9 ± 339.5 ^b h⋅ng/mL |
| CC(=O)C[C@H](c1ccccc1)c1c(O)c2ccccc2oc1=O [R-warfarin] | (−54%) | (−52%) | (−51%) | not affected | not affected | 52% | 54% | 51% | 1310.8 ± 169.6 ^b h⋅ng/mL | 3007.6 ± 230.0 ^b h⋅ng/mL | 90.4 ± 58.2 h⋅ng/mL | 168.6 ± 17.2 ^b ng/mL | 2943.7 ± 185.7 ^a h⋅ng/mL | 4739.3 ± 255.0 ^ab h⋅ng/mL | 402.8 ± 33.6 ^a ng/mL | 2848.9 ± 395.0 ^a h⋅ng/mL | 6209.2 ± 1253.4 ^a h⋅ng/mL | 222.0 ± 125.3 h⋅ng/mL | 341.1 ± 56.6 ^a ng/mL | – |
| CC(=O)CC(c1ccccc1)c1c(O)c2ccccc2oc1=O (racemic) [(±) warfarin, (±) Warfarin sodium] | – | – | – | – | – | – | – | – | – | – | – | – | – | – | – | – | – | – | – | INR value at 24 h ([2]; control rats, oral (±) warfarin 0.2 mg/kg alone): 1.4 ± 0.1; INR value at 24 h compared with control rats ([2]; rats, CJ given 0.5 h prior to warfarin): not different from the control rats; Increase of INR value at 24 h vs control rats ([2]; rats, CJ given 10 h after warfarin): 93%; INR value at 24 h ([2]; rats, oral (±) warfarin 0.2 mg/kg + CJ 5 g/kg given 0.5 h prior to warfarin): 1.6 ± 0.1; INR value at 24 h ([2]; rats, oral (±) warfarin 0.2 mg/kg + CJ 5 g/kg given 10 h later): 2.7 ± 0.5 |

Source: PMC8470483, “Bidirectional Influences of Cranberry on the Pharmacokinetics and Pharmacodynamics of Warfarin with Mechanism Elucidation” (Nutrients, 2021)
